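Assay format: 96-well plates, 48-hour exposure. At the GI50, growth is halved. TGI is the concentration that stops growth completely.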
Tests used:
Assay in all cases: NCI anticancer screen, dose series, 48 h
NCI-H23 lung = tested on: NCI-H23 lung
HS 578T breast = tested on: HS 578T breast
LOX IMVI melanoma = tested on: LOX IMVI melanoma
SK-OV-3 ovarian = tested on: SK-OV-3 ovarian
ACHN renal = tested on: ACHN renal
HCC-2998 colon = tested on: HCC-2998 colon
SW-620 colon = tested on: SW-620 colon
A549 NSCLC = tested on: A549 NSCLC
OVCAR-5 ovarian = tested on: OVCAR-5 ovarian
M14 melanoma = tested on: M14 melanoma

SMILES | GI50 (NCI-H23 lung) [µM] | TGI (NCI-H23 lung) [µM] | GI50 (HS 578T breast) [µM] | TGI (HS 578T breast) [µM] | GI50 (LOX IMVI melanoma) [µM] | TGI (LOX IMVI melanoma) [µM] | GI50 (SK-OV-3 ovarian) [µM] | TGI (SK-OV-3 ovarian) [µM] | GI50 (ACHN renal) [µM] | TGI (ACHN renal) [µM] | GI50 (HCC-2998 colon) [µM] | TGI (HCC-2998 colon) [µM] | GI50 (SW-620 colon) [µM] | TGI (SW-620 colon) [µM] | GI50 (A549 NSCLC) [µM] | TGI (A549 NSCLC) [µM] | GI50 (OVCAR-5 ovarian) [µM] | TGI (OVCAR-5 ovarian) [µM] | GI50 (M14 melanoma) [µM] | TGI (M14 melanoma) [µM]
COc1ccc(C(=O)c2cc3c(OC)c(OC)c(OC)cc3[nH]2)cc1 | 6.25 | > 100 | 4.25 | > 100 | 4.91 | > 100 | > 100 | > 100 | 12.8 | > 100 | 3.8 | > 100 | 5.87 | > 100 | 5.77 | > 100 | 66.9 | > 100 | 3.69 | > 100
Cc1c2c[n+](C(C)C)ccc2c(C)c2c1[nH]c1ccccc12 | 1.75 | 15.7 | 1.13 | 19 | 9.17 | 32.1 | 3.19 | 39.8 | 22.6 | > 100 | 2.99 | 13.7 | 3.63 | 49.7 | 2.55 | > 100 | 5.95 | > 100 | 3.77 | 17
C#Cc1c(C(N)=O)ncn1C1OC(COP(=O)(OCc2ccc([N+](=O)[O-])o2)N(C)CCCCCl)C(O)C1O (stereo not given) | 5.99 | 73.6 | > 100 | > 100 | 22.4 | > 100 | 77 | > 100 | 45 | > 100 | 16.2 | > 100 | 41.4 | > 100 | 28.5 | > 100 | 16.2 | > 100 | 67.9 | > 100
CO[C@@H]1CC(=O)C2(CC(=O)O[C@@H]2/C=C(\C)CCC=C(C)C)C[C@@H]1O (stereo not given in full) | 0.358 | 1.14 | 4.74 | > 50 | 0.634 | 1.57 | 1.62 | 5.3 | 0.817 | 1.78 | 0.214 | 0.814 | 0.754 | > 50 | 1.65 | > 12.2 | 0.769 | 1.96 | 0.709 | 1.55
C=C1C(=O)O[C@H]2[C@H]1CC/C(COC(=O)NCCc1c[nH]c3ccc(OC)cc13)=C\CC[C@@]1(C)O[C@@H]21 | 2.25 | 5.84 | 6.42 | 36.9 | 1.32 | 2.78 | 14.1 | 27.2 | 1.38 | 2.72 | 2.34 | 5.64 | 1.94 | 5.27 | 4.58 | 18.4 | 1.82 | 4 | 1.62 | 3.51
COc1ccc2c(c1)C(=O)/C(=C/c1ncc([N+](=O)[O-])n1C)O2 | 1.02 | 4.76 | 0.74 | 10.9 | 0.179 | 0.481 | 2.11 | 6.43 | 0.204 | 0.596 | 1.54 | 4.59 | 0.0843 | 0.426 | 2.18 | 6.28 | 1.75 | 5.67 | 0.244 | 0.737
CC(=O)O/N=C1/C(c2c(O)[nH]c3cc(Br)ccc23)=Nc2ccccc21 | 1.63 | 3.62 | 0.0698 | 1.79 | 1.13 | 2.4 | 0.421 | 1.96 | 0.707 | 2.18 | 1.68 | 3.08 | 1.82 | 3.46 | 1.48 | 3.47 | 2.51 | 4.17 | 2 | 4.88
CCCCCCCCCCCCSC(=N)N | 16.3 | 32.8 | 17.3 | 38.8 | 3.58 | 13.3 | 17.4 | 33.5 | 3.89 | 15.9 | 2.31 | 5.62 | 2.73 | 8.14 | 12.9 | 29.5 | 12.4 | 25.3 | 5.16 | 17.2
